Measurements published in patent JP2017128553A, “抗癌剤、抗癌剤の制御方法” (IHI Corp, priority 2016, dated 2017).

Test: MRI造影効果: MRI contrast effect of solutions (T1- and T2-weighted, 7.0T)
Type: physicochemical
Settings: aqueous solution, 0, 1.3, 2.5, 5mM, T1- and T2-weighted images, Fig. 6(C)

MRI image appearance: いずれの濃度においても白色の高シグナル
SMILES: Cc1ccc(Nc2nccc(N(C)c3ccc4c(C)n(C)nc4c3)n2)cc1S(N)(=O)=O [比較例1, 2-メチル-5-[[4-[メチル(2,3-ジメチル-2H-インダゾール-6-イル)アミノ]ピリミジン-2-イル]アミノ]ベンゼンスルホンアミド]
